Assays:
FGF2 = experiment: ELISA of fallopian culture medium: FGF2; format: cell-based, human; details: 10 nM E2, 7 days, n=6; not significantly altered
Protocol: Tissues were micro-dissected in alpha-MEM (Gibco, Carlsbad, Calif.) with 1% penicillin-streptomycin (Invitrogen, Carlsbad, Calif.). Individual fimbriae were separated into ˜50 mm^3 pieces. A portion of the tissue was fixed in 2% paraformaldehyde for use as an uncultured control. For optimization studies, fimbriae were cultured without matrix, encapsulated in 0.5% alginate, or encapsulated in 0.5% alginate with 1 mg/ml collagen and 0.1% fibronectin, as previously described for murine cultures (King et al. J Vis Exp. 2011.; herein incorporated by reference in its entirety). For subsequent treatments, 0.5% alginate encapsulated fimbriae were randomly assigned to treatment groups, with at least five fimbriae per condition, per patient, in a 24-well plate containing alpha-MEM and 1% penicillin-streptomycin. […] Prior to fixation, fimbriae were labeled with 10 μM bromodeoxyurine (BrdU, Sigma-Aldrich) for 24 hours to denote proliferating cells. […]
IL8, VEGF-A, and FGF2 were detected in fallopian culture medium by enzyme-linked immunosorbent assay for human IL8 (EMD Millipore, Billerica, Mass., USA), VEGF-A (RayBiotech, GA, USA), or FGF2 (Abcam) respectively using the manufacturers' protocols. […] Results were normalized to total protein content as determined by western blotting and Ponceau staining to account for difference in tissue size between treatment groups. […]

[1] = test system: progesterone receptor (PR) expression in human fimbriae; experiment: 3D human fimbriae culture: progesterone receptor immunohistochemistry; format: cell-based; details: 1 nM and 10 nM E2
Protocol: Tissues were micro-dissected in alpha-MEM (Gibco, Carlsbad, Calif.) with 1% penicillin-streptomycin (Invitrogen, Carlsbad, Calif.). Individual fimbriae were separated into ˜50 mm^3 pieces. A portion of the tissue was fixed in 2% paraformaldehyde for use as an uncultured control. For optimization studies, fimbriae were cultured without matrix, encapsulated in 0.5% alginate, or encapsulated in 0.5% alginate with 1 mg/ml collagen and 0.1% fibronectin, as previously described for murine cultures (King et al. J Vis Exp. 2011.; herein incorporated by reference in its entirety). For subsequent treatments, 0.5% alginate encapsulated fimbriae were randomly assigned to treatment groups, with at least five fimbriae per condition, per patient, in a 24-well plate containing alpha-MEM and 1% penicillin-streptomycin. […] Prior to fixation, fimbriae were labeled with 10 μM bromodeoxyurine (BrdU, Sigma-Aldrich) for 24 hours to denote proliferating cells. Fimbriae cultures were fixed (2% paraformaldehyde) followed by dehydration in ethanol and xylene, and embedment in paraffin.
Sections (5 μm) were cut and stained via hematoxylin and eosin for morphological analysis or immunohistochemistry was performed to localize proteins of interest as previously described (King et al. Endocr Relat Cancer. 2011. 18:627-42.; herein incorporated by reference in its entirety). […]

C[C@]12CC[C@@H]3c4ccc(O)cc4CC[C@H]3[C@@H]1CC[C@@H]2O [E2, estradiol]
FGF2 decrease compared to vehicle control (FGF2): 9%±8%
progesterone receptor (PR) expression compared to vehicle control [1]: induction

Source: patent publication US11542475B2, “3D microphysiologic system” (Northwestern University, priority 2014, dated 2023)
